Laboratory results reported in the supplement of paper PMC11061612.

Assays:
Experiment in all cases: Bliss excess, mean over the matrix (fraction); higher = more synergy
[1] = test system: P30-OHK (B-Lymphoblastic Leukemia)
How it was run: (§1)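 Cell lines in DMEM/F12 or RPMI with 10% FBS were plated in 1536-well plates, held 24 hours at 37°C, 5% CO2, then given two-drug dose matrices for 72 hours (DMSO typically 0.2%). Viability was read by CellTiter-Glo 2.0 luminescence and scaled as inhibition from 0 (vehicle wells) to 1 (blank wells). Combination Emax is the second-highest inhibition in the matrix; Bliss excess is observed combination effect minus expected EA + EB − EA·EB, EA and EB being single-agent effects.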

[2] = test system: C-33-A (Cervical Carcinoma)
How it was run: as §1

UACC-257 (Melanoma) = test system: UACC-257 (Melanoma)
How it was run: as §1

[3] = test system: KP-4 (Pancreatic Carcinoma)
How it was run: as §1

GAK (Melanoma) = test system: GAK (Melanoma)
How it was run: as §1

ES6 (Ewing's Sarcoma) = test system: ES6 (Ewing's Sarcoma)
How it was run: as §1

[4] = test system: NAMALWA (Burkitt's Lymphoma)
How it was run: as §1

[5] = test system: RCC-JW (Kidney Carcinoma)
How it was run: as §1

[6] = test system: MOLP-8 (Plasma Cell Myeloma)
How it was run: as §1

KALS-1 (Glioblastoma) = test system: KALS-1 (Glioblastoma)
How it was run: as §1

[7] = test system: MS-1 (Small Cell Lung Carcinoma)
How it was run: as §1

[8] = test system: HT-1080 (Other Solid Carcinomas)
How it was run: as §1

[9] = test system: COR-L88 (Small Cell Lung Carcinoma)
How it was run: as §1

[10] = test system: SKG-IIIa (Cervical Carcinoma)
How it was run: as §1

| SMILES | Bliss excess [1] | Bliss excess [2] | Bliss excess (UACC-257 (Melanoma)) | Bliss excess [3] | Bliss excess (GAK (Melanoma)) | Bliss excess (ES6 (Ewing's Sarcoma)) | Bliss excess [4] | Bliss excess [5] | Bliss excess [6] | Bliss excess (KALS-1 (Glioblastoma)) | Bliss excess [7] | Bliss excess [8] | Bliss excess [9] | Bliss excess [10] |
| --- | --- | --- | --- | --- | --- | --- | --- | --- | --- | --- | --- | --- | --- | --- |
| Cc1cc2ncnn2cc1Nc1ncc2c(n1)n(C1CCOCC1)c(=O)n2C [AZD7648] + C[C@@H]1COCCN1C2=NC(=NC(=C2)C3(CC3)[S@](=N)(=O)C)C4=C5C=CNC5=NC=C4 [AZD6738] (first compound max 10 µM, 7x7, partner max 10 µM) | 0.0253 | 0.007 | 0.0075 | 0.0727 | 0.0104 | -0.0082 | -0.0089 | 0.0176 | 0.0234 | 0.0135 | -0.0266 | -0.0459 | 0.0291 | 0.0412 |
| Cc1cc2ncnn2cc1Nc1ncc2c(n1)n(C1CCOCC1)c(=O)n2C [AZD7648] + O=C(c1cc(Cc2n[nH]c(=O)c3ccccc23)ccc1F)N1CCN(C(=O)C2CC2)CC1 [Olaparib] (first compound max 10 µM, 7x7, partner max 10 µM) | 0.0285 | -0.0107 | -0.0422 | -0.0225 | -0.0379 | -0.0341 | -0.0119 | -0.0795 | -0.0267 | -0.0225 | -0.0087 | -0.0165 | -0.0432 | -0.0678 |
| COc1cccc2c1C(=O)c1c(O)c3c(c(O)c1C2=O)C[C@@](O)(C(=O)CO)C[C@@H]3O[C@H]1C[C@H](N)[C@H](O)[C@H](C)O1 [Doxorubicin] + Cc1cc2ncnn2cc1Nc1ncc2c(n1)n(C1CCOCC1)c(=O)n2C [AZD7648] (first compound max 1 µM, 7x7, partner max 10 µM) | 0.129 | 0.0531 | -0.0059 | 0.0583 | 0.0711 | 0.0672 | 0.0765 | 0.0352 | 0.0396 | 0.0571 | 0.0686 | 0.108 | -0.0228 | 0.0086 |
| COc1cccc(OCCCN)c1-c1cc(Nc2cnc(C#N)cn2)n[nH]1 [Prexasertib] + C=CCn1c(=O)c2cnc(Nc3ccc(N4CCN(C)CC4)cc3)nc2n1-c1cccc(C(C)(C)O)n1 [AZD1775] (first compound max 1 µM, partner max 1 µM) | 0.0398 | 0.0983 | 0.0714 | 0.0861 | 0.0832 | 0.0362 | 0.06 | 0.169 | 0.0398 | -0.0436 | 0.0972 | 0.0643 | 0.0538 | -0.006 |
| COc1cccc(OCCCN)c1-c1cc(Nc2cnc(C#N)cn2)n[nH]1 [Prexasertib] + CCc1c2c(nc3ccc(O)cc13)-c1cc3c(c(=O)n1C2)COC(=O)[C@]3(O)CC [SN-38] (first compound max 1 µM, 7x7, partner max 0.3 µM) | -0.0164 | 0.0583 | -0.0664 | 0.0454 | 0.0087 | 0.0156 | -0.0197 | -0.0065 | -0.082 | 0.0399 | -0.0051 | -0.0274 | -0.0204 | 0.0683 |
| COc1cccc(OCCCN)c1-c1cc(Nc2cnc(C#N)cn2)n[nH]1 [Prexasertib] + CN(C)CCCOc1ccc(-c2ccc3ncc4c(c3c2)n(C2CCOCC2)c(=O)n4C)cn1 [AZD0156] (first compound max 1 µM, 7x7, partner max 1 µM) | -0.045 | -0.0158 | 0.0044 | 0 | 0.0668 | 0.0091 | -0.0133 | 0.0281 | -0.0203 | -0.0669 | 0.0205 | 0.0241 | -0.0137 | 0.0159 |
| COc1cccc(OCCCN)c1-c1cc(Nc2cnc(C#N)cn2)n[nH]1 [Prexasertib] + C[C@@H]1COCCN1C2=NC(=NC(=C2)C3(CC3)[S@](=N)(=O)C)C4=C5C=CNC5=NC=C4 [AZD6738] (first compound max 1 µM, 7x7, partner max 10 µM) | -0.0333 | 0.0091 | 0.0005 | 0.0072 | -0.0092 | 0.0366 | -0.0052 | 0.0671 | -0.0366 | -0.0557 | -0.0136 | -0.0089 | -0.0483 | 0.0363 |
| COc1cccc(OCCCN)c1-c1cc(Nc2cnc(C#N)cn2)n[nH]1 [Prexasertib] + Cc1cc2ncnn2cc1Nc1ncc2c(n1)n(C1CCOCC1)c(=O)n2C [AZD7648] (first compound max 1 µM, 7x7, partner max 10 µM) | -0.0301 | -0.0283 | -0.0111 | 0.0031 | -0.0028 | 0.0027 | 0.0087 | 0.0374 | -0.013 | -0.0363 | -0.0228 | 0.0234 | -0.0628 | 0.0223 |
| COc1cccc(OCCCN)c1-c1cc(Nc2cnc(C#N)cn2)n[nH]1 [Prexasertib] + O=C(c1cc(Cc2n[nH]c(=O)c3ccccc23)ccc1F)N1CCN(C(=O)C2CC2)CC1 [Olaparib] (first compound max 1 µM, 7x7, partner max 10 µM) | -0.0074 | -0.0329 | -0.0242 | 0.0261 | -0.0159 | 0.0253 | -0.044 | -0.0896 | -0.0802 | -0.115 | -0.0481 | 0.0164 | -0.157 | -0.0274 |
| COc1cc2c(cc1OCCCCCOc1cc3c(cc1OC)C(=O)N1C=C(C)C[C@H]1C=N3)N=C[C@@H]1CC(C)=CN1C2=O [SG3199] + O=C(c1cc(Cc2n[nH]c(=O)c3ccccc23)ccc1F)N1CCN(C(=O)C2CC2)CC1 [Olaparib] (first compound max 0.001 µM, 7x7, partner max 10 µM) | -0.0422 | -0.0476 | -0.0419 | -0.0366 | -0.0238 | -0.0231 | 0.0018 | -0.0231 | 0.002 | -0.0155 | 0.0418 | -0.02 | -0.0133 | -0.0391 |
| CCc1c2c(nc3ccc(O)cc13)-c1cc3c(c(=O)n1C2)COC(=O)[C@]3(O)CC [SN-38] + CN(C)CCCOc1ccc(-c2ccc3ncc4c(c3c2)n(C2CCOCC2)c(=O)n4C)cn1 [AZD0156] (first compound max 0.3 µM, 7x7, partner max 1 µM) | 0.0969 | 0.0058 | 0.0023 | 0.0541 | 0.0182 | 0.0441 | 0.0402 | 0.05 | -0.142 | 0.0189 | -0.0384 | 0.0132 | -0.0636 | 0.0352 |
| CCc1c2c(nc3ccc(O)cc13)-c1cc3c(c(=O)n1C2)COC(=O)[C@]3(O)CC [SN-38] + O=C(c1cc(Cc2n[nH]c(=O)c3ccccc23)ccc1F)N1CCN(C(=O)C2CC2)CC1 [Olaparib] (first compound max 0.3 µM, 7x7, partner max 10 µM) | 0.0708 | 0.0577 | 0.0213 | 0.0777 | 0.0227 | 0.13 | 0.0571 | 0.112 | 0.0336 | 0.069 | 0.0551 | 0.0978 | 0.0785 | 0.0602 |
| CC(=O)Nc1cccc(-n2c(=O)n(C3CC3)c(=O)c3c(Nc4ccc(I)cc4F)n(C)c(=O)c(C)c32)c1 [Trametinib] + Cc1nc(-c2cn3c(n2)-c2ccc(-c4cnn(C(C)(C)C(N)=O)c4)cc2OCC3)n(C(C)C)n1 [Taselisib] (first compound max 1 µM, 7x7, partner max 10 µM) | 0.151 | 0.0744 | 0.0443 | 0.0745 | 0.0805 | -0.0292 | 0.0825 | 0.0114 | 0.186 | 0.0751 | 0.0912 | 0.0288 | 0.0085 | 0.112 |
| CC1(C)CCC(CN2CCN(c3ccc(C(=O)NS(=O)(=O)c4ccc(NCC5CCOCC5)c([N+](=O)[O-])c4)c(Oc4cnc5[nH]ccc5c4)c3)CC2)=C(c2ccc(Cl)cc2)C1 [Venetoclax] + C1CN(CCC1(C(=O)N[C@@H](CCO)C2=CC=C(C=C2)Cl)N)C3=NC=NC4=C3C=CN4 [Capivasertib] (first compound max 1 µM, 7x7, partner max 3 µM) | 0.058 | -0.0453 | -0.0707 | -0.0623 | -0.0305 | -0.0858 | -0.0126 | -0.0312 | -0.0114 | -0.0501 | -0.0572 | -0.0351 | -0.0181 | -0.0207 |
| CC1(C)CCC(CN2CCN(c3ccc(C(=O)NS(=O)(=O)c4ccc(NCC5CCOCC5)c([N+](=O)[O-])c4)c(Oc4cnc5[nH]ccc5c4)c3)CC2)=C(c2ccc(Cl)cc2)C1 [Venetoclax] + C=CCn1c(=O)c2cnc(Nc3ccc(N4CCN(C)CC4)cc3)nc2n1-c1cccc(C(C)(C)O)n1 [AZD1775] (first compound max 1 µM, partner max 1 µM) | 0.207 | 0.0262 | -0.0142 | -0.0385 | 0.0074 | 0.025 | 0.0438 | -0.0116 | -0.0225 | 0.0815 | 0.0465 | -0.0359 | 0.0736 | -0.0362 |
